Data published in the supplement of paper PMC7287046.

What was measured:
Settings in all cases: exposure time: 72 h
[1] = test system: U118; assay: Chou-Talalay combination index (dimensionless); higher = less synergy (more antagonism)
Method: (§1)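 Glioma cell lines were treated for 72 h with a 6x6 matrix of two drugs, each in twofold dilutions with the top dose at the single-drug IC50. Viability was read by CellTiter-Glo and normalised to DMSO controls, in triplicate. The Chou-Talalay combination index was computed by the median effect principle; CI < 0.8 means synergy.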

[2] = test system: KNS42; assay: as above
Method: as §1

[3] = test system: SF539; assay: as above
Method: as §1

[4] = test system: U251; assay: as above
Method: as §1

[5] = test system: SF268; assay: as above
Method: as §1

[6] = test system: U87; assay: as above
Method: as §1

[7] = test system: SNB75; assay: as above
Method: as §1

[8] = test system: T98; assay: as above
Method: as §1

[9] = test system: AM38; assay: as above
Method: as §1

[10] = test system: U118; assay: Loewe synergy score (Combenefit); higher = more synergy; extreme values may be limits of the assay
Method: (§2)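 The same 6x6 dose matrices of drug pairs on glioma cell lines (72 h, CellTiter-Glo viability normalised to DMSO, triplicate) were scored with Combenefit. The Loewe, Bliss and HSA synergy scores are given; paper thresholds are Loewe 7.8 and Bliss 2.5.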

[11] = test system: AM-38; assay: as above
Method: as §2

[12] = test system: SF539; assay: as above
Method: as §2

[13] = test system: U251; assay: as above
Method: as §2

[14] = test system: KNS-42; assay: as above
Method: as §2

[15] = test system: SF268; assay: as above
Method: as §2

[16] = test system: U87; assay: as above
Method: as §2

[17] = test system: T98G; assay: as above
Method: as §2

[18] = test system: SNB75; assay: as above
Method: as §2

[19] = test system: U118; assay: Bliss synergy score (Combenefit); higher = more synergy; extreme values may be limits of the assay
Method: as §2

[20] = test system: AM-38; assay: as above
Method: as §2

[21] = test system: SF539; assay: as above
Method: as §2

[22] = test system: U251; assay: as above
Method: as §2

[23] = test system: KNS-42; assay: as above
Method: as §2

[24] = test system: SF268; assay: as above
Method: as §2

[25] = test system: U87; assay: as above
Method: as §2

[26] = test system: T98G; assay: as above
Method: as §2

[27] = test system: SNB75; assay: as above
Method: as §2

[28] = test system: U118; assay: HSA synergy score (Combenefit); higher = more synergy
Method: as §2

[29] = test system: AM-38; assay: as above
Method: as §2

[30] = test system: SF539; assay: as above
Method: as §2

[31] = test system: U251; assay: as above
Method: as §2

[32] = test system: KNS-42; assay: as above
Method: as §2

[33] = test system: SF268; assay: as above
Method: as §2

[34] = test system: U87; assay: as above
Method: as §2

[35] = test system: T98G; assay: as above
Method: as §2

[36] = test system: SNB75; assay: as above
Method: as §2

SMILES | Chou-Talalay combination index [1] | Chou-Talalay combination index [2] | Chou-Talalay combination index [3] | Chou-Talalay combination index [4] | Chou-Talalay combination index [5] | Chou-Talalay combination index [6] | Chou-Talalay combination index [7] | Chou-Talalay combination index [8] | Chou-Talalay combination index [9] | Loewe synergy score [10] | Loewe synergy score [11] | Loewe synergy score [12] | Loewe synergy score [13] | Loewe synergy score [14] | Loewe synergy score [15] | Loewe synergy score [16] | Loewe synergy score [17] | Loewe synergy score [18] | Bliss synergy score [19] | Bliss synergy score [20] | Bliss synergy score [21] | Bliss synergy score [22] | Bliss synergy score [23] | Bliss synergy score [24] | Bliss synergy score [25] | Bliss synergy score [26] | Bliss synergy score [27] | HSA synergy score [28] | HSA synergy score [29] | HSA synergy score [30] | HSA synergy score [31] | HSA synergy score [32] | HSA synergy score [33] | HSA synergy score [34] | HSA synergy score [35] | HSA synergy score [36]
CC(=O)O[C@@]12CO[C@@H]1C[C@H](O)[C@@]1(C)C(=O)[C@H](O)C3=C(C)[C@@H](OC(=O)[C@H](O)[C@@H](NC(=O)OC(C)(C)C)c4ccccc4)C[C@@](O)([C@@H](OC(=O)c4ccccc4)[C@H]21)C3(C)C [Docetaxel] + O=c1[nH]c2ccccc2n1C1CCN(Cc2ccc(-c3[nH]c4cc5ncnc5cc4nc3-c3ccccc3)cc2)CC1 [Akt inhibitor VIII] | 0.9 | 0.838 | 0.939 | 0.933 | 0.885 | 0.625 | 0.796 | 0.84 | 0.894 | 3.76 | 5.53 | 1.09 | 0 | 10.8 | 3.03 | 2.83 | 0 | 0.96 | 5.46 | 0.132 | 0.217 | 0.156 | 1.6 | 1.32 | 1.56 | 0 | 0.989 | 8.23 | 11 | 2.57 | 0.629 | 15.2 | 11.6 | 4.37 | 0 | 6.81
CCCCCCCCCCCC1=C(O)C(=O)C=C(O)C1=O [Embelin] + N#CC(c1ccnc(NCCc2cccnc2)n1)c1nc2ccccc2s1 [AS601245] | 0.639 | 0.78 | 0.84 | 0.88 | 0.923 | 0.0258 | 0.365 | 0.365 | 0.867 | 4.39 | 0 | 0.787 | 1.11 | 2.73 | 0.00767 | 0.927 | 6.59 | 0.557 | 2.98 | 0.346 | 0.103 | 1.11 | 7.8 | 1.91 | 9.51 | 6.12 | 0.833 | 4.61 | 1.14 | 1.24 | 1.11 | 12.6 | 5.6 | 10.3 | 11.9 | 2.04
CCCCCCCCCCCC1=C(O)C(=O)C=C(O)C1=O [Embelin] + O=c1[nH]c2ccccc2n1C1CCN(Cc2ccc(-c3[nH]c4cc5ncnc5cc4nc3-c3ccccc3)cc2)CC1 [Akt inhibitor VIII] | 0.946 | 0.589 | 1.03 | 0.839 | 0.946 | 0.641 | 0.773 | 0.226 | 0.773 | 1.18 | 0.351 | 0.853 | 0.813 | 21.4 | 1.14 | 1.72 | 3.51 | 1.11 | 1.02 | 1.12 | 0.0542 | 0.813 | 10.1 | 2.64 | 3.16 | 1.2 | 1.95 | 2.72 | 2.45 | 2.02 | 0.813 | 21.8 | 6.9 | 3.6 | 5.06 | 5.56
C#Cc1cccc(Nc2ncnc3cc(OCCOC)c(OCCOC)cc23)c1 [Erlotinib] + CCCCCCCCCCCC1=C(O)C(=O)C=C(O)C1=O [Embelin] | 0.853 | 0.797 | 0.728 | 0.632 | 0.795 | 1.14 | 0.836 | 0.961 | 1.08 | 2.33 | 0 | 1.08 | 10.4 | 5.93 | 1.59 | 0 | 0.68 | 1.7 | 0.526 | 0 | 2.46 | 10.1 | 5.81 | 0.32 | 0 | 0 | 0.771 | 2.42 | 0 | 8.08 | 14.6 | 10.4 | 4.82 | 0 | 1.02 | 6.85
C#Cc1cccc(Nc2ncnc3cc(OCCOC)c(OCCOC)cc23)c1 [Erlotinib] + N#CC(c1ccnc(NCCc2cccnc2)n1)c1nc2ccccc2s1 [AS601245] | 1.02 | 0.914 | 1.01 | 0.946 | 0.948 | 3 | 1.07 | 0.621 | 1.25 | 2.58 | 0 | 0.448 | 2.04 | 1.56 | 0.12 | 0 | 3.11 | 0.0161 | 0 | 0 | 0.186 | 0 | 0.447 | 0.0526 | 0 | 0.855 | 0 | 3.12 | 0 | 2.83 | 3.14 | 2.81 | 2.63 | 0 | 3.77 | 1.2
C#Cc1cccc(Nc2ncnc3cc(OCCOC)c(OCCOC)cc23)c1 [Erlotinib] + O=c1[nH]c2ccccc2n1C1CCN(Cc2ccc(-c3[nH]c4cc5ncnc5cc4nc3-c3ccccc3)cc2)CC1 [Akt inhibitor VIII] | 0.807 | 0.754 | 0.906 | 0.526 | 0.97 | 1.26 | 0.763 | 0.775 | 0.914 | 7.49 | 0 | 7.22 | 10.4 | 12.3 | 3.87 | 0 | 1.87 | 4.44 | 4.68 | 0 | 0.771 | 12.6 | 7.67 | 1.25 | 0 | 0.127 | 10.2 | 17 | 0 | 9.63 | 13.6 | 14 | 10.1 | 0.0775 | 6.87 | 13.2
Nc1ccn([C@@H]2O[C@H](CO)[C@@H](O)C2(F)F)c(=O)n1 [Gemcitabine] + C=CCc1cccc(/C=N/NC(=O)CN2CCN(Cc3ccccc3)CC2)c1O [PAC-1] | 0.999 | 0.675 | 0.863 | 0.722 | 0.965 | 1.06 | 0.978 | 0.935 | 1 | 0 | 0.966 | 0.062 | 0.777 | 21.9 | 0.48 | 0 | 0.986 | 0.834 | 0 | 0 | 0.236 | 0.174 | 0.716 | 0.0746 | 0 | 0.518 | 0.278 | 1.58 | 0.966 | 3.14 | 1.09 | 22.7 | 3.55 | 0 | 3.73 | 5.49
Nc1ccn([C@@H]2O[C@H](CO)[C@@H](O)C2(F)F)c(=O)n1 [Gemcitabine] + CCOc1nc(NC(=O)Cc2cc(OC)ccc2OC)cc(N)c1C#N [JNK inhibitor VIII] | 1.03 | 0.946 | 0.933 | 1.16 | 1.03 | 0.631 | 0.913 | 0.958 | 1.14 | 0.043 | 0 | 0.162 | 0 | 0.883 | 0.121 | 22.2 | 0.133 | 2.33 | 0 | 0 | 0.139 | 0 | 0.163 | 0.306 | 5.17 | 0.133 | 0.369 | 0.0469 | 0 | 2.34 | 0 | 0.883 | 0.909 | 22.2 | 0.133 | 5.13
Nc1ccn([C@@H]2O[C@H](CO)[C@@H](O)C2(F)F)c(=O)n1 [Gemcitabine] + CO[C@H]1C[C@@H]2CC[C@@H](C)[C@@](O)(O2)C(=O)C(=O)N2CCCC[C@H]2C(=O)O[C@H]([C@H](C)C[C@@H]2CC[C@@H](O)[C@H](OC)C2)CC(=O)[C@H](C)/C=C(\C)[C@@H](O)[C@@H](OC)C(=O)[C@H](C)C[C@H](C)/C=C/C=C/C=C/1C [Rapamycin] | 0.654 | 1.04 | 0.669 | 0.677 | 0.786 | 0.683 | 0.95 | 1.13 | 0.998 | 22 | 0.0506 | 16.9 | 4.63 | 0.0119 | 18.1 | 10 | 1.27 | 4.52 | 2.62 | 0.0506 | 4.47 | 0.62 | 0 | 6.03 | 1.89 | 0 | 1.41 | 23 | 0.0506 | 18.2 | 4.63 | 0.15 | 18.5 | 10 | 1.52 | 4.52
